From US12071624B2, “Antisense oligonucleotide targeting ARL4C molecule, and nucleic acid drug using antisense oligonucleotide” (OSAKA UNIVERSITY, priority 2018, dated 2024)

Assays:
HLE cells = test: Cell proliferation assay (CyQUANT NF) in HLE cells; format: cell-based; conditions: HLE cells transfected with siRNA at 20 nM
Method: HLE cells, HCT116 cells, and A549 cells were transfected with 25 to 50 nM ASO and 10 to 20 nM siRNA using Lipofectamine 3000 (Invitrogen, Carlsbad, CA, USA) or RNAiMAX (Invitrogen). Transfected cells were used in the experiments 36 to 48 hours after the end of the transfection.
The cell proliferation assays were performed using the CyQUANT NF Cell Proliferation Assay Kits (Thermo Fisher Scientific), in the way recommended by the manufacturer.
HLE cells were transfected with control ASO, ASO-1316 and ASO-3223 at 25 nM and a proliferation assay was performed; the results of the assay are shown in (e) of FIG. 4.
(§1) HLE cells were transfected with control siRNA and PIK3CD siRNA (siRNA against PIK3CD) at 20 nM, and a proliferation assay was performed; the results are shown in (e) of FIG. 5. In addition, an anti-phosphorylated AKT antibody and an anti-AKT antibody as probes were caused to act on cell lysates of HLE cells transfected with control siRNA and PIK3CD siRNA; the results are shown in FIG. 5 (f). HLE cells were transfected with control siRNA and PIK3CD siRNA (siRNA against PIK3CD) at 20 nM and the PIK3CD mRNA amount was measured by real-time PCR; the results are shown in (c) of FIG. 7.

AKT = test: Anti-phosphorylated AKT / anti-AKT probing of HLE cell lysates; format: cell-based; conditions: HLE cells transfected with PIK3CD siRNA
Description: Anti-ARL4C and anti-PIK3CD antibodies were purchased from Abcam (Cambridge, UK) and Santa Cruz Biotechnology (Santa Cruz, CA, USA), respectively. Anti-phosphorylated AKT (S473) antibody, anti-AKT antibody, anti-Ki-67 antibody, and anti-YAP/TAZ were purchased from Cell Signaling Technology (Beverly, MA, USA). PD184161 (MEK1/2 inhibitor) and VivoGlo luciferin were purchased from Sigma-Aldrich (Steinheim, Germany) and Promega (Madison, WI, USA), respectively.
as §1

PIK3CD siRNA: siRNA against PIK3CD, Table 3, SEQ ID NO: 102 and 103 (chain 1 GCGAATACTCTGCCATTAT; chain 2 GCCAACTAACTCTGCAGAT; two separate siRNAs, only sense strands listed, further chemistry not given here) [reference compound]
cell proliferation (HLE cells): suppressed cell proliferation | AKT activity (pAKT S473) (AKT): reduced AKT activity
